Reference: publication PMC12036557, “Functional Imaging of CYP3A4 at Multiple Dimensions Using an AI‐Driven High Performance Fluorogenic Substrate” (Small (Weinheim an Der Bergstrasse, Germany), 2025)

Tests used:
CYP3A4 [1] = target: T1, CYP3A4 (Homo sapiens, UniProt P08684); assay: NFa-based screening and characterizing of hCYP3A4 inhibitors in HLMs; conditions: human, human liver microsomes, pH 7.4, probe NFa (4-hydroxylation to 4-HNFa)
CYP3A4 [2] = target: T1, CYP3A4; assay: in vitro; conditions: pH 7.4

T1 sequence (P08684 whole entry): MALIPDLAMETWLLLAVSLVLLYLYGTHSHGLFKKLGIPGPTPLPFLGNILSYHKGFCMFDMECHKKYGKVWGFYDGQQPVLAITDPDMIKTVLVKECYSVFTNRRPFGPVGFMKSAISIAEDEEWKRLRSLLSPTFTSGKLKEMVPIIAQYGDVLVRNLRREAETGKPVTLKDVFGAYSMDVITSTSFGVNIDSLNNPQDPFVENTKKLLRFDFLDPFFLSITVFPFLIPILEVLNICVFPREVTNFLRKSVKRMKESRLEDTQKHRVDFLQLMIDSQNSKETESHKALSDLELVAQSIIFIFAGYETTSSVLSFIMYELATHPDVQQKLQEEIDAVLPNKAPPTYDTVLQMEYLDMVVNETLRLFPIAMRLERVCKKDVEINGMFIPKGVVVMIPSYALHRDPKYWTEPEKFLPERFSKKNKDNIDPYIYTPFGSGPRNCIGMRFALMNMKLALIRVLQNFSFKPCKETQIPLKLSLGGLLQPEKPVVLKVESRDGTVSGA

Molecule `O=C1c2cccc(O)c2C(=O)c2cccc(O)c21` [1,5-Dihydroxyanthraquinone] has an activity at 30 min, 1 µM (CYP3A4 [1]) of 99.8%.
Molecule `O=C1c2cccc(Cl)c2C(=O)c2c(Cl)cccc21` [1,8-Dichloroanthraquinone] has an activity at 30 min, 1 µM (CYP3A4 [1]) of 85.5%.
`Nc1cccc2c1C(=O)c1ccccc1C2=O` [1-Aminoanthraquinone] gave an activity at 30 min, 1 µM (CYP3A4 [1]) of 62.6%.
For `O=C1c2ccccc2C(=O)c2c(O)cccc21` [1-Hydroxy anthraquinone], the activity at 30 min, 1 µM (CYP3A4 [1]) was 90.5%.
`O=C1c2ccc(Br)cc2C(=O)c2ccc(Br)cc21` [2,6-Dibromoanthraquinone] gave an activity at 30 min, 1 µM (CYP3A4 [1]) of 85.5%.
`O=C1c2ccc(O)cc2C(=O)c2ccc(O)cc21` [2,6-Dihydroxyanthraquinone] showed an activity at 30 min, 1 µM (CYP3A4 [1]) of 88.8%.
Molecule `CCc1ccc2c(c1)C(=O)c1ccccc1C2=O` [2-Ethyl anthraquinone] has an activity at 30 min, 1 µM (CYP3A4 [1]) of 79.8%.
Work on `Cc1ccc2c(c1)C(=O)c1ccccc1C2=O` [2-Methyl anthraquinone] yielded an activity at 30 min, 1 µM (CYP3A4 [1]) of 83.6%.
For `COc1ccc(-c2cc(=O)c3c(O)cc(O)cc3o2)cc1` [Acacetin], the activity at 30 min, 1 µM (CYP3A4 [1]) was 49.9%.
For `CCN1C[C@]2(COC)[C@H](O)C[C@H](OC)[C@@]34[C@@H]5C[C@@]6(O)[C@H](OC(=O)c7ccccc7)[C@@H]5[C@@](OC(C)=O)([C@@H]([C@H](OC)[C@H]23)[C@@H]14)[C@@H](O)[C@@H]6OC` [Aconitine], the activity at 30 min, 1 µM (CYP3A4 [2]) was 94.8%.
`COc1cc(O)cc2c1C(=O)C[C@@H](c1ccccc1)O2` [Alpinetin] was tested, and the activity at 30 min, 1 µM (CYP3A4 [1]) was 95.7%.
For `O=C(O)c1ccc2c(c1)C(=O)c1ccccc1C2=O` [Anthraquinone-2-carboxylic acid], the activity at 30 min, 1 µM (CYP3A4 [1]) was 98%.
`O=C1c2ccccc2C(=O)c2ccccc21` [Anthraquinone] was tested, and the activity at 30 min, 1 µM (CYP3A4 [2]) was 94.3%.
`COc1cc(C[C@H]2C(=O)OC[C@@H]2Cc2ccc(OC)c(OC)c2)ccc1O` [Arctigenin] gave an activity at 30 min, 1 µM (CYP3A4 [1]) of 103%.
`CC(C)=CCc1cc2c(cc1O)O[C@H](c1ccc(O)cc1)CC2=O` [Bavachin] was tested, and the activity at 30 min, 1 µM (CYP3A4 [1]) was 71.6%.
Molecule `COc1ccc(-c2coc3cc(O)ccc3c2=O)cc1O` [Calycosin] has an activity at 30 min, 1 µM (CYP3A4 [1]) of 99.3%.
Work on `CC[C@@]1(O)C(=O)OCc2c1cc1n(c2=O)Cc2cc3ccccc3nc2-1` [Camptothecin] yielded an activity at 30 min, 1 µM (CYP3A4 [2]) of 93.8%.
`COc1ccc2c(c[n+](C)c3c4cc5c(cc4ccc23)OCO5)c1OC` [Chelerythrine] gave an activity at 1 µM (CYP3A4 [2]) of 89.6%.
`c1c2c(cc3c1OCO3)-c1cc3ccc4c(c3c[n+]1CC2)OCO4` [Coptisine] was tested, and the activity at 1 µM (CYP3A4 [2]) was 77.9%.
In the case of `O=c1cccc2n1C[C@@H]1CNC[C@H]2C1` [Cytisine], the activity at 1 µM (CYP3A4 [2]) is reported as 94.1%.
Molecule `COc1cc2c(cc1OC)C(=O)/C(=C/c1ccccc1)C2` [D1, (E)-2-benzylidene-5,6-dimethoxy-2,3-dihydro-1H-inden-1-one] has an activity at 1 µM (CYP3A4 [2]) of 88%.
For `COc1cc2c(cc1OC)C(=O)/C(=C/c1ccco1)C2` [D2, (E)-2-(Furan-2-ylmethylene)-5,6-dimethoxy-2,3-dihydro-1H-inden-1-one], the activity at 30 min, 1 µM (CYP3A4 [1]) was 102%.
Molecule `COc1cc2c(cc1OC)C(=O)/C(=C/c1ccc(-c3ccccc3)cc1)C2` [D3, (E)-2-([1,1'-Biphenyl]-4-ylmethylene)-5,6-dimethoxy-2,3-dihydro-1H-inden-1-one] has an activity at 30 min, 1 µM (CYP3A4 [1]) of 75.9%.
For `COc1cc2c(cc1OC)C(=O)/C(=C/c1ccccc1C)C2` [D4, (E)-5,6-Dimethoxy-2-(2-methylbenzylidene)-2,3-dihydro-1H-inden-1-one], the activity at 30 min, 1 µM (CYP3A4 [1]) was 58.1%.
`COc1cc2c(cc1OC)C(=O)/C(=C/c1cccc(C)c1)C2` [D5, (E)-5,6-dimethoxy-2-(3-methylbenzylidene)-2,3-dihydro-1H-inden-1-one] gave an activity at 30 min, 1 µM (CYP3A4 [1]) of 72.3%.
With `COc1ccc(/C=C2\Cc3cc(OC)c(OC)cc3C2=O)cc1` [D6, (E)-5,6-Dimethoxy-2-(4-methoxybenzylidene)-2,3-dihydro-1H-inden-1-one] the activity at 30 min, 1 µM (CYP3A4 [1]) was 67.8%.
`COc1ccccc1C(=O)/C=C/c1ccc2ccccc2c1` [D7, (E)-1-(2-methoxyphenyl)-3-(naphthalen-2-yl)prop-2-en-1-one] showed an activity at 30 min, 1 µM (CYP3A4 [1]) of 95.7%.
Work on `O=C(/C=C/c1ccc2ccccc2c1)c1ccccc1O` [D8, (E)-1-(2-hydroxyphenyl)-3-(naphthalen-2-yl)prop-2-en-1-one] yielded an activity at 30 min, 1 µM (CYP3A4 [1]) of 88%.
`COc1cc(O)c(C(=O)/C=C/c2ccc3ccccc3c2)c(OC)c1OC` [D9, (E)-1-(6-hydroxy-2,3,4-trimethoxyphenyl)-3-(naphthalen-2-yl)prop-2-en-1-one] was tested, and the activity at 30 min, 1 µM (CYP3A4 [1]) was 85%.
`COc1cc(O)c(C(=O)/C=C/c2ccc3ncccc3c2)c(OC)c1OC` [D12, (E)-1-(6-hydroxy-2,3,4-trimethoxyphenyl)-3-(quinolin-6-yl)prop-2-en-1-one] gave an activity at 30 min, 1 µM (CYP3A4 [1]) of 70%.
`COc1cccc(C(=O)/C=C/c2ccc3nccnc3c2)c1` [D14, (E)-1-(3-methoxyphenyl)-3-(quinoxalin-6-yl)prop-2-en-1-one] showed an activity at 30 min, 1 µM (CYP3A4 [1]) of 63.9%.
In the case of `O=C(/C=C/c1ccc2nccnc2c1)c1ccccc1O` [D15, (E)-1-(2-hydroxyphenyl)-3-(quinoxalin-6-yl)prop-2-en-1-one], the activity at 30 min, 1 µM (CYP3A4 [1]) is reported as 64.5%.
In the case of `COc1cccc(O)c1C(=O)/C=C/c1ccc2nc(Cl)ccc2c1` [D16, (E)-3-(2-chloroquinolin-6-yl)-1-(2-hydroxy-6-methoxyphenyl)prop-2-en-1-one], the activity at 30 min, 1 µM (CYP3A4 [1]) is reported as 100%.
In the case of `COc1ccc(C(=O)/C=C/c2ccc3nc(Cl)ccc3c2)c(O)c1` [D17, (E)-3-(2-chloroquinolin-6-yl)-1-(2-hydroxy-4-methoxyphenyl)prop-2-en-1-one], the activity at 30 min, 1 µM (CYP3A4 [1]) is reported as 83.6%.
In the case of `COc1cc(O)c(C(=O)/C=C/c2ccc3nccnc3c2)c(OC)c1` [D18, (E)-1-(2-hydroxy-4,6-dimethoxyphenyl)-3-(quinoxalin-6-yl)prop-2-en-1-one], the activity at 30 min, 1 µM (CYP3A4 [1]) is reported as 54%.
For `O=c1c(-c2ccc(O)cc2)coc2cc(O)ccc12` [Daidzein], the activity at 30 min, 1 µM (CYP3A4 [2]) was 97.4%.
`COc1cc2c(cc1OC)[C@@H](Cc1ccc(Oc3cc(C[C@@H]4c5cc(OC)c(OC)cc5CCN4C)ccc3O)cc1)N(C)CC2` [Dauricine] showed an activity at 30 min, 1 µM (CYP3A4 [1]) of 92.8%.
Work on `COc1cc(O)ccc1/C=C/C(=O)c1ccc(O)cc1` [Echinatin] yielded an activity at 30 min, 1 µM (CYP3A4 [1]) of 47.6%.
`Cc1c(O)c(C)c2c(c1O)C(=O)C[C@@H](c1ccc(O)cc1)O2` [Farrerol] showed an activity at 30 min, 1 µM (CYP3A4 [1]) of 73.5%.
Molecule `COc1ccc(-c2coc3cc(O)ccc3c2=O)cc1` [Formononetin] has an activity at 30 min, 1 µM (CYP3A4 [1]) of 98.9%.
With `O=c1c(O)c(-c2ccccc2)oc2cc(O)cc(O)c12` [Galangin] the activity at 30 min, 1 µM (CYP3A4 [1]) was 94%.
`COc1cc2c(=O)c(-c3ccc(O)cc3)coc2cc1O` [Glycitein] gave an activity at 30 min, 1 µM (CYP3A4 [1]) of 104%.
With `CC1(C)[C@@H](O)CC[C@]2(C)[C@H]3C(=O)C=C4[C@@H]5C[C@@](C)(C(=O)O)CC[C@]5(C)CC[C@@]4(C)[C@]3(C)CC[C@@H]12` [Glycyrrhetinic acid] the activity at 30 min, 1 µM (CYP3A4 [1]) was 66.9%.
`COc1ccc2c(c1)[nH]c1c(C)nccc12` [Harmine] gave an activity at 1 µM (CYP3A4 [2]) of 101%.
For `O=c1c(O)c(-c2ccc(O)cc2)oc2c(O)c(O)cc(O)c12` [Herbacetin], the activity at 30 min, 1 µM (CYP3A4 [1]) was 91.1%.
Work on `COc1ccc([C@@H]2CC(=O)c3c(O)cc(O)cc3O2)cc1O` [Hesperetin] yielded an activity at 30 min, 1 µM (CYP3A4 [2]) of 96.8%.
Work on `CN1[C@@H]2CC[C@H]1C[C@@H](OC(=O)[C@H](CO)c1ccccc1)C2` [Hyoscyamine] yielded an activity at 1 µM (CYP3A4 [2]) of 98%.
With `COC[C@@]12CC[C@H](OC)[C@]34C(C([C@H](OC)[C@H]13)[C@]1(OC(C)=O)[C@H]3[C@@H](OC(=O)c5ccccc5)[C@](O)(C[C@H]34)[C@@H](OC)[C@@H]1O)N(C)C2` [Hypaconitine] the activity at 1 µM (CYP3A4 [2]) was 94.9%.
`COc1ccc(-c2oc3c(CC=C(C)C)c(O)cc(O)c3c(=O)c2O)cc1` [Icaritin] showed an activity at 30 min, 1 µM (CYP3A4 [2]) of 90.1%.
With `CC(C)=CCc1c(O)ccc(C(=O)/C=C/c2ccc(O)cc2)c1O` [Isobavachalcone] the activity at 30 min, 1 µM (CYP3A4 [1]) was 54.2%.
With `O=c1c(O)c(-c2ccc(O)cc2)oc2cc(O)cc(O)c12` [Kaempferol] the activity at 30 min, 1 µM (CYP3A4 [1]) was 67.9%.
`O[C@H]1[C@H]2c3cc4c(cc3CN3CCC(=C[C@@H]1O)[C@H]23)OCO4` [Lycorine] gave an activity at 1 µM (CYP3A4 [2]) of 92.1%.
For `C=CCc1ccc(O)c(-c2cc(CC=C)ccc2O)c1` [Magnolol], the activity at 1 µM (CYP3A4 [2]) was 106%.
`CC(C)=CCc1cc(-c2coc3cc(O)ccc3c2=O)ccc1O` [Neobavaisoflavone] gave an activity at 30 min, 1 µM (CYP3A4 [1]) of 87.9%.
`COc1ccc(-c2cc(=O)c3c(OC)c(OC)c(OC)c(OC)c3o2)cc1OC` [Nobiletin] showed an activity at 30 min, 1 µM (CYP3A4 [2]) of 102%.
Molecule `O=c1cc(-c2ccccc2)oc2c(O)c(O)cc(O)c12` [Norwogonin] has an activity at 30 min, 1 µM (CYP3A4 [1]) of 85.3%.
For `CC1(C)CC[C@]2(C(=O)O)CC[C@]3(C)C(=CC[C@@H]4[C@@]5(C)CC[C@H](O)C(C)(C)[C@@H]5CC[C@]43C)[C@@H]2C1` [Oleanolic acid], the activity at 1 µM (CYP3A4 [2]) was 70.2%.
With `O=C1C=CC[C@@H]2[C@H]3CCC[N+]4([O-])CCC[C@@H](CN12)[C@@H]34` (stereo partly drawn) [Oxysophocarpine] the activity at 1 µM (CYP3A4 [2]) was 96.1%.
`COc1ccc(-c2cc(=O)c3c(O)c(OC)c(O)cc3o2)cc1` [Pectolinarigenin] was tested, and the activity at 30 min, 1 µM (CYP3A4 [2]) was 98%.
For `O=C(CCc1ccc(O)cc1)c1c(O)cc(O)cc1O` [Phloretin], the activity at 30 min, 1 µM (CYP3A4 [1]) was 97.3%.
With `COc1c(OC)c2occc2c2oc(=O)ccc12` [Pimpinellin] the activity at 30 min, 1 µM (CYP3A4 [1]) was 103%.
With `O=C(O)c1ccc(O)c(O)c1` [Protocatechuic acid] the activity at 30 min, 1 µM (CYP3A4 [1]) was 109%.
`Oc1ccc(/C=C/c2cc(O)cc(O)c2)cc1` [Resveratrol] was tested, and the activity at 30 min, 1 µM (CYP3A4 [1]) was 72.1%.
In the case of `CN1[C@@H]2C[C@@H](OC(=O)[C@H](CO)c3ccccc3)C[C@H]1[C@@H]1O[C@@H]12` [Scopolamine], the activity at 1 µM (CYP3A4 [2]) is reported as 98.8%.
Molecule `COc1cc(C2Oc3cc([C@H]4Oc5cc(O)cc(O)c5C(=O)[C@@H]4O)ccc3OC2CO)ccc1O` (stereo partly drawn) [Silybin] has an activity at 30 min, 1 µM (CYP3A4 [2]) of 89%.
For `C=C1[C@H]2C[C@@]3([C@@H]1O)[C@@H](CC2=O)[C@]12[C@@H]4C[C@H]3[C@H]1N(CC)C[C@]4(C)CC[C@@H]2O` [Songorine], the activity at 1 µM (CYP3A4 [2]) was 104%.
In the case of `COc1c(O)cc2occ(-c3ccc(O)cc3)c(=O)c2c1O` [Tectorigenin], the activity at 30 min, 1 µM (CYP3A4 [1]) is reported as 95.5%.
Work on `C[C@H]1[C@H](C)CC[C@]2(C(=O)O)CC[C@]3(C)C(=CC[C@@H]4[C@@]5(C)CC[C@H](O)C(C)(C)[C@@H]5CC[C@]43C)[C@H]12` [Ursolic acid] yielded an activity at 30 min, 1 µM (CYP3A4 [1]) of 99.3%.
For `COc1cc(O)c(CC=C(C)C)c(O)c1C(=O)/C=C/c1ccc(O)cc1` [Xanthohumol], the activity at 30 min, 1 µM (CYP3A4 [1]) was 59.9%.
